Reference: publication PMC10707724, “Dual Effects of 3-epi-betulin from Daphniphyllum glaucescens in Suppressing SARS-CoV-2-Induced Inflammation and Inhibiting Virus Entry” (International Journal of Molecular Sciences, 2023)

Legend:
spike protein = conditions: cited from earlier work
[1] = test system: SARS-CoV-2 virus spike binding to ACE2; conditions: by computational screening; cited from earlier work
[2] = test system: pro-inflammatory genes (IL1B, IL6) in differentiated THP-1 cells; assay type: cell-based
SARS-CoV-2 replicon = experiment: microbe, parasite or virus in culture; assay type: cell-based; conditions: Severe acute respiratory syndrome coronavirus 2, HEK-293T, read-out: EC50, replication of SARS-CoV-2 replicon (luciferase activity)
[3] = test system: pro-inflammatory genes, IL6 and TNF, in Calu-3 cells; assay type: cell-based
[4] = test system: SARS-CoV-2 (hCoV-19/Taiwan/NTU49/2020); assay type: cell-based; conditions: Calu-3, 10 μM for 24 h after infection
[5] = test system: SARS-CoV-2 (hCoV-19/Taiwan/NTU49/2020); experiment: microbe, parasite or virus in culture; assay type: cell-based
[6] = test system: wild-type SARS-CoV-2 pseudovirus SEMpv; experiment: microbe, parasite or virus in culture; assay type: cell-based; conditions: Severe acute respiratory syndrome-related coronavirus, BHK-ACE2, 48 h, read-out: EC50, pseudovirus entry
[7] = test system: wild-type SARS-CoV-2 pseudovirus Spv; experiment: microbe, parasite or virus in culture; assay type: cell-based; conditions: Severe acute respiratory syndrome-related coronavirus, BHK-ACE2, 48 h, read-out: EC50, pseudovirus entry
VSV-pseudovirus (Gpv) = assay type: cell-based
[8] = test system: SARS-CoV-2 Alpha (B.1.1.7); experiment: microbe, parasite or virus in culture; assay type: cell-based; conditions: Severe acute respiratory syndrome coronavirus 2, Vero C1008, Alpha (B.1.1.7)
[9] = test system: SARS-CoV-2 Eplison (B.1.429); experiment: microbe, parasite or virus in culture; assay type: cell-based; conditions: Severe acute respiratory syndrome coronavirus 2, Vero C1008, Eplison (B.1.429)
SARS-CoV-2 Gamma (P1) = experiment: microbe, parasite or virus in culture; assay type: cell-based; conditions: Severe acute respiratory syndrome coronavirus 2, Vero C1008, Gamma (P1)
[10] = test system: SARS-CoV-2 Delta (B.1.617.2); experiment: microbe, parasite or virus in culture; assay type: cell-based; conditions: Severe acute respiratory syndrome coronavirus 2, Vero C1008, Delta (B.1.617.2)
[11] = test system: SARS-CoV-2 Omicron (BA.1); experiment: microbe, parasite or virus in culture; assay type: cell-based; conditions: Severe acute respiratory syndrome coronavirus 2, Vero C1008
SARS-CoV-2 pseudoviruses = assay type: cell-based; conditions: pseudovirus pre-treated with compound 37 °C 1 h, BHK-ACE2 48 h, luciferase
BHK-ACE2 cells = conditions: BHK-ACE2, 48 h, MTS
[12] = compound given after pseudovirus infection, 16 h (time-of-addition study)

For `C=C(C)[C@@H]1CC[C@]2(CO)CC[C@]3(C)[C@H](CC[C@@H]4[C@@]5(C)CC[C@H](O)C(C)(C)[C@@H]5CC[C@]43C)[C@@H]12` [Compound 7, Betulin], the “ability to bind to the spike protein” value (spike protein) is given as “ability to bind to the spike protein”.

For `C=C(C)[C@@H]1CC[C@]2(C(=O)O)CC[C@]3(C)[C@H](CC[C@@H]4[C@@]5(C)CC[C@H](O)C(C)(C)[C@@H]5CC[C@]43C)[C@@H]12` [Betulinic acid], the “inhibition of spike binding to ACE2 through the RBD domain” value [1] is listed as “inhibit SARS-CoV-2 virus spike binding to ACE2”.

In the case of `C=C(C)[C@@H]1CC[C@]2(CO)CC[C@]3(C)[C@H](CC[C@@H]4[C@@]5(C)CC[C@@H](O)C(C)(C)[C@@H]5CC[C@]43C)[C@@H]12` [Compound 5, 3-epi-Betulin], the “decrease in IL1B expression” value [2, 12] is reported as 69.5%, the “decrease in IL6 expression” value [2, 12] is reported as 82.9% and the “expression of pro-inflammatory genes, pre-inoculation” value ([2]; compound mixed with pseudovirus 1 h before infecting differentiated THP-1 cells) is reported as “remained unchanged”. The “expression of pro-inflammatory genes, pre-treatment” value ([2]; compound on differentiated THP-1 cells 1 h before pseudovirus infection) was “remained unchanged”, the “IL1B RNA level decrease” value ([2]; differentiated THP-1 infected with SEMpv, then compound for 16 h) was 47.3% and the EC50 (SARS-CoV-2 replicon) was 11.7 ± 0.4 µM. The IL6 expression decrease [3] was 66.6%, the TNF expression decrease [3] was 46.0% and the “minus-stranded viral RNA decrease” value [4] was 51.7%. For the same compound, the “plus-stranded viral RNA reduction” value [4] was 73.8%, the “culture supernatant viral load decrease” value ([4]; RT-qPCR) was 61.4% and the plaque formation decline ([4]; plaque assay of supernatant) was 51.5%. For the same compound, the EC50 ([5]; Severe acute respiratory syndrome coronavirus 2, Calu-3 lung epithelial cells, read-out: EC50, SARS-CoV-2 infection) was less than 20 µM, the “intracellular viral RNA decrease” value ([5]; virus pre-incubated with 20 μM, Calu-3, 24 h) was 45.6% and the “infectious virus titer decrease” value ([5]; virus pre-incubated with 20 μM, Calu-3, 24 h, plaque assay) was 66.3%. For the same compound, the EC50 [6] was 14.6 µM, the EC50 [7] was 16.3 µM and the “inhibitory activity against control VSV-pseudovirus” value (VSV-pseudovirus (Gpv)) was “no inhibitory activity”. For the same compound, the EC50 [8] was 10.3 µM, the EC50 [9] was 12.9 µM and the EC50 (SARS-CoV-2 Gamma (P1)) was 3.27 µM. The EC50 [10] was 3.09 µM, the EC50 [11] was 14.5 ± 3.9 µM and the “inhibitory activity for virus entry” value (SARS-CoV-2 pseudoviruses) was “highest inhibitory activity”. The cytotoxicity (BHK-ACE2 cells) was “no cytotoxicity”.
